According to patent publication US6159940A, “Method for modulating hemopoiesis” (Immunotech Developments Inc., priority 1999, dated 2000):

Key:
Antibody Forming Cells = Antibody Forming Cells count (Jerne) in spleen after immunization with sheep erythrocytes; assay type: in vivo, (CBA×C57BL)F1 mice
Procedure: Females and male (CBA×C57BL)F1 mice, aged about 2.5 months weighing about 20 g, were irradiated with gamma-rays using a "Luch-1" apparatus. Immunological activity was assessed according to Jerne (Antibody Forming Cells count--AFC). T-cell count in spleen was determined by the method of spontaneous rosette formation with sheep erythrocytes (E-FRC). The peptide was injected intramuscularly.
Mice were irradiated in a dose of 2 Gy, the peptide was injected in the dose of 10 μg/kg according to the following scheme (to determine T-cell count by the method of spontaneous rosette formation): 1 time--an hour after the irradiation; 2 times--an hour, and a day after irradiation; 3 times--an hour, a day, and two days after the irradiation; 4 times--an hour, a day, two days and three days after the irradiation. The intact mice recieved the peptide 3 or 4 times. The control group (2 Gy) recieved injections of physiological solution according to the same schedule. On completion of the treatment course, 10 mice from each group were immunized with sheep erythrocytes (SE) and 4-5 days later AFC counts were determined in their spleens. The rest of the mice were used to find T-cell count by the method of spontaneous rosette formation. The state of the organs of immune system (spleen and thymus) in mice with radiation immunodeficiency against the background of H-Ile-Glu-Trp-OH treatment was also listed by nucleated cell counts in thymus and spleen per mg of organ weight. AFC/mg Spleen weight is presented as an average of two experiments.

CFU-S [1] = experiment: Spleen colony formation from RAMBS-treated bone marrow in lethally irradiated mice; assay type: in vivo, (CBA×C57BL)F1 female mice
Source text: (CBA×C57BL)F1 female mice (n=2500), 2-months old, weighing about 20 g, were used in the experiment.
As is known, there is a close relationship between T-cells and hemopoietic progenitors. It was shown that, along with colony-forming units of spleen (CFU-S), thymocytes participate in colony formation of spleens of irradiated mice by controlling proliferation of the hemopoietic progenitor cells. The fact was established in a test system, which allowed a selective removal of accessory T-cells from bone marrow with the help of rabbit antimouse brain antiserum (RAMBS) and their substitution with other factors. Aliquots (0.1 ml) of bone marrow suspension (2×10^7 cells), RAMBS, and medium 199 were mixed and incubated for 1 hour at 37° C. Then the cells were washed with centrifuging, resuspended and injected to lethally irradiated mice.
According to the aforesaid scheme, instead of thymocytes mice received the peptide, H-Ile-Glu-Trp-OH injections 30 minutes before the injections of RAMBS-treated bone marrow suspension.

CFU-S [2] = experiment: Reconstitution of CFU-S and nucleated cells in irradiated mice (4 Gy), i.v. versus i.m.; assay type: in vivo
Procedure: A further study of the effect of the peptide, using different methods of administration, on the dynamics of reconstitution of CFU-S, Nucleated blood Cells (NC) in the femoral bone marrow and peritheric blood (mm) of irradiated mice (4 Gy) was conducted.
Donor mice were irradiated with γ-rays in the dose of 4 Gy. Then they received the petide i.v. or i.m. 1, 2, 3, or 4 times, once a day, starting from the 1 first hour of the 3rd day after the irradiation (10 μg/kg per injection). […] At different intervals after the irradiation 10 mice were taken from each group to determine CFU-S in the bone marrow. The mice were killed, cell suspensions were prepared from the bone marrow and injected to lethally irradiated recipients. NC were counted in the femoral bone marrow and peritheric blood, and the lymphocyte percentage was found.

nucleated blood cells = experiment: Karyocyte and lymphocyte counts in blood of irradiated mice (4 Gy), scheme 2; assay type: in vivo
Procedure: Irradiated mice (4 Gy) received intramuscular injections of the peptide in the dose of 10 μg/kg according to 2 schemes.
b) According to scheme 2, the peptide injections were made starting from the 3rd day after the irradiation, at the same time of maximum depletion of the pool of mature nucleated cells and the bone marrow. The groups of mice were formed in the same way as in the previous scheme. […] Tables 9 and 10 present the data on karyocyte and lymphocyte counts in blood (per 1 mm^3) of mice treated according to scheme 2.

Substance: H-Ile-Glu-Trp-OH
- AFC/mg Spleen (Antibody Forming Cells; 2 Gy, 10 μg/kg i.m., 3 Injection): 152.4 ± 4.1
- AFC/mg Spleen (Antibody Forming Cells; 2 Gy, 10 μg/kg i.m., 4 Injection): 158.1 ± 7.1
- AFC/mg Spleen (Antibody Forming Cells; intact mice, 3 Injections): 621.1 ± 14.2
- AFC/mg Spleen (Antibody Forming Cells; intact mice, 4 Injections): 676.1 ± 47.5
- AFC increase (Antibody Forming Cells; intact mice, humoral response to SE): 5 times
- number of antibody forming cells (Antibody Forming Cells; irradiated mice, 3 and 4 injections): practically doubled
- Average Colony Count (CFU-S [1]; RAMBS-treated bone marrow + preparation, lethally irradiated mice): 6,3 ± 0,4
- increase of colony yields as compared to RAMBS-treated bone marrow (CFU-S [1]; mouse, in vivo): 2-3 times
- NC content in the bone marrow (CFU-S [2]; IM 10 μg/kg): no effect
- reconstitution of the CFU-S pool (CFU-S [2]; IM 10 μg/kg (especially 1, 2, 3 times)): positively influenced the reconstitution of the CFU-S pool earlier, beginning from day 8
- reconstitution of the CFU-S pool (CFU-S [2]; i.v. 10 μg/kg 1, 3, or 4 times): helped better reconstitution of the CFU-S pool by day 14 only
- Karyocyte Count in Blood (nucleated blood cells; scheme 2, 1 Time, Day 7): 1.64 ± 0.2 × 10^3
- Lymphocyte in Blood (Absolute) (nucleated blood cells; scheme 2, 1 Time, Day 7): 232
- Lymphocyte in Blood, % (nucleated blood cells; scheme 2, 1 Time, Day 7): 45.1 ± 3.9%
- Karyocyte Count in Blood (nucleated blood cells; scheme 2, 1 Time, Day 11): 1.88 ± 0.3 × 10^3
- Lymphocyte in Blood (Absolute) (nucleated blood cells; scheme 2, 1 Time, Day 11): 1365
- Lymphocyte in Blood, % (nucleated blood cells; scheme 2, 1 Time, Day 11): 49.2 ± 3.8%
- Karyocyte Count in Blood (nucleated blood cells; scheme 2, 1 Time, Day 14): 1.50 ± 0.2 × 10^3
- Lymphocyte in Blood (Absolute) (nucleated blood cells; scheme 2, 1 Time, Day 14): 1118
- Lymphocyte in Blood, % (nucleated blood cells; scheme 2, 1 Time, Day 14): 43.3 ± 3.2%
- Karyocyte Count in Blood (nucleated blood cells; scheme 2, 1 Time, Day 18): 2.62 ± 0.2 × 10^3
- Lymphocyte in Blood (Absolute) (nucleated blood cells; scheme 2, 1 Time, Day 18): 2412
- Lymphocyte in Blood, % (nucleated blood cells; scheme 2, 1 Time, Day 18): 30.6 ± 2.9%
- Karyocyte Count in Blood (nucleated blood cells; scheme 2, 1 Time, Day 21): 1.63 ± 0.2 × 10^3
- Lymphocyte in Blood (Absolute) (nucleated blood cells; scheme 2, 1 Time, Day 21): 743
- Lymphocyte in Blood, % (nucleated blood cells; scheme 2, 1 Time, Day 21): 45.6 ± 3.9%
- Karyocyte Count in Blood (nucleated blood cells; scheme 2, 2 Times, Day 7): 1.33 ± 0.2 × 10^3
- Lymphocyte in Blood (Absolute) (nucleated blood cells; scheme 2, 2 Times, Day 7): 701
- Lymphocyte in Blood, % (nucleated blood cells; scheme 2, 2 Times, Day 7): 52.7 ± 2.9%
- Karyocyte Count in Blood (nucleated blood cells; scheme 2, 2 Times, Day 11): 2.03 ± 0.3 × 10^3
- Lymphocyte in Blood (Absolute) (nucleated blood cells; scheme 2, 2 Times, Day 11): 915
- Lymphocyte in Blood, % (nucleated blood cells; scheme 2, 2 Times, Day 11): 45.1 ± 5.4%
- Karyocyte Count in Blood (nucleated blood cells; scheme 2, 2 Times, Day 14): 1.60 ± 0.2 × 10^3
- Lymphocyte in Blood (Absolute) (nucleated blood cells; scheme 2, 2 Times, Day 14): 619
- Lymphocyte in Blood, % (nucleated blood cells; scheme 2, 2 Times, Day 14): 38.8 ± 2.2%
- Karyocyte Count in Blood (nucleated blood cells; scheme 2, 2 Times, Day 18): 1.67 ± 0.1 × 10^3
- Lymphocyte in Blood (Absolute) (nucleated blood cells; scheme 2, 2 Times, Day 18): 703
- Lymphocyte in Blood, % (nucleated blood cells; scheme 2, 2 Times, Day 18): 42.1 ± 1.4%
- Karyocyte Count in Blood (nucleated blood cells; scheme 2, 2 Times, Day 21): 2.70 ± 0.2 × 10^3
- Lymphocyte in Blood (Absolute) (nucleated blood cells; scheme 2, 2 Times, Day 21): 1220
- Lymphocyte in Blood, % (nucleated blood cells; scheme 2, 2 Times, Day 21): 45.2 ± 2.3%
- Karyocyte Count in Blood (nucleated blood cells; scheme 2, 3 Times, Day 7): 2.22 ± 0.3 × 10^3
- Lymphocyte in Blood (Absolute) (nucleated blood cells; scheme 2, 3 Times, Day 7): 968
- Lymphocyte in Blood, % (nucleated blood cells; scheme 2, 3 Times, Day 7): 43.6 ± 2.1%
- Karyocyte Count in Blood (nucleated blood cells; scheme 2, 3 Times, Day 11): 1.94 ± 0.2 × 10^3
- Lymphocyte in Blood (Absolute) (nucleated blood cells; scheme 2, 3 Times, Day 11): 892
- Lymphocyte in Blood, % (nucleated blood cells; scheme 2, 3 Times, Day 11): 46.3 ± 5.4%
- Karyocyte Count in Blood (nucleated blood cells; scheme 2, 3 Times, Day 14): 1.50 ± 0.2 × 10^3
- Lymphocyte in Blood (Absolute) (nucleated blood cells; scheme 2, 3 Times, Day 14): 744
- Lymphocyte in Blood, % (nucleated blood cells; scheme 2, 3 Times, Day 14): 47.7 ± 6.1%
- Karyocyte Count in Blood (nucleated blood cells; scheme 2, 3 Times, Day 18): 2.07 ± 0.2 × 10^3
- Lymphocyte in Blood (Absolute) (nucleated blood cells; scheme 2, 3 Times, Day 18): 7353
- Lymphocyte in Blood, % (nucleated blood cells; scheme 2, 3 Times, Day 18): 35.5 ± 1.4%
- Karyocyte Count in Blood (nucleated blood cells; scheme 2, 3 Times, Day 21): 2.45 ± 0.4 × 10^3
- Lymphocyte in Blood (Absolute) (nucleated blood cells; scheme 2, 3 Times, Day 21): 1289
- Lymphocyte in Blood, % (nucleated blood cells; scheme 2, 3 Times, Day 21): 52.5 ± 3.2%
- Karyocyte Count in Blood (nucleated blood cells; scheme 2, 4 Times, Day 7): 2.71 ± 0.4 × 10^3
- Lymphocyte in Blood (Absolute) (nucleated blood cells; scheme 2, 4 Times, Day 7): 1231
- Lymphocyte in Blood, % (nucleated blood cells; scheme 2, 4 Times, Day 7): 45.6 ± 2.5%
- Karyocyte Count in Blood (nucleated blood cells; scheme 2, 4 Times, Day 11): 3.03 ± 0.5 × 10^3
- Lymphocyte in Blood (Absolute) (nucleated blood cells; scheme 2, 4 Times, Day 11): 1406
- Lymphocyte in Blood, % (nucleated blood cells; scheme 2, 4 Times, Day 11): 42.6 ± 3.6%
- Karyocyte Count in Blood (nucleated blood cells; scheme 2, 4 Times, Day 14): 1.17 ± 0.1 × 10^3
- Lymphocyte in Blood (Absolute) (nucleated blood cells; scheme 2, 4 Times, Day 14): 515
- Lymphocyte in Blood, % (nucleated blood cells; scheme 2, 4 Times, Day 14): 44.0 ± 3.1%
- Karyocyte Count in Blood (nucleated blood cells; scheme 2, 4 Times, Day 18): 2.48 ± 0.1 × 10^3
- Lymphocyte in Blood (Absolute) (nucleated blood cells; scheme 2, 4 Times, Day 18): 1116
- Lymphocyte in Blood, % (nucleated blood cells; scheme 2, 4 Times, Day 18): 45.1 ± 1.8%
- Karyocyte Count in Blood (nucleated blood cells; scheme 2, 4 Times, Day 21): 1.66 ± 0.2 × 10^3
- Lymphocyte in Blood (Absolute) (nucleated blood cells; scheme 2, 4 Times, Day 21): 789
- Lymphocyte in Blood, % (nucleated blood cells; scheme 2, 4 Times, Day 21): 47.5 ± 5.3%
